Measured values reported in PubChem BioAssay AID1259407 (Chemical Carcinogenesis Research Information System (CCRIS), 2018).
Calls of active or inactive are those of the source. How the calls were made is not given here.

Test system: CCRIS mutagenicity, Ames/micronucleus/aberration tests
Assay: CCRIS mutagenicity studies
[1] = Test System: AMES SALMONELLA TYPHIMURIUM, Strain/Indicator: TA97, Metabolic Activation: HAMSTER, LIVER, S-9, AROCLOR 1254 (30%), Method: PREINCUBATION
[2] = Test System: AMES SALMONELLA TYPHIMURIUM, Strain/Indicator: TA97, Metabolic Activation: NONE, Method: PREINCUBATION
[3] = Test System: AMES SALMONELLA TYPHIMURIUM, Strain/Indicator: TA97, Metabolic Activation: RAT, LIVER, S-9, AROCLOR 1254 (10%), Method: PREINCUBATION
[4] = Test System: AMES SALMONELLA TYPHIMURIUM, Strain/Indicator: TA98, Metabolic Activation: HAMSTER, LIVER, S-9, AROCLOR 1254 (10%), Method: PREINCUBATION
[5] = Test System: AMES SALMONELLA TYPHIMURIUM, Strain/Indicator: TA98, Metabolic Activation: HAMSTER, LIVER, S-9, AROCLOR 1254 (30%), Method: PREINCUBATION
[6] = Test System: AMES SALMONELLA TYPHIMURIUM, Strain/Indicator: TA98, Metabolic Activation: NONE, Method: PREINCUBATION
[7] = Test System: AMES SALMONELLA TYPHIMURIUM, Strain/Indicator: TA98, Metabolic Activation: RAT, LIVER, S-9, AROCLOR 1254 (10%), Method: PREINCUBATION
[8] = Test System: AMES SALMONELLA TYPHIMURIUM, Strain/Indicator: TA98, Metabolic Activation: RAT, LIVER, S-9, AROCLOR 1254 (30%), Method: PREINCUBATION
[9] = Test System: AMES SALMONELLA TYPHIMURIUM, Strain/Indicator: TA100, Metabolic Activation: HAMSTER, LIVER, S-9, AROCLOR 1254 (10%), Method: PREINCUBATION
[10] = Test System: AMES SALMONELLA TYPHIMURIUM, Strain/Indicator: TA100, Metabolic Activation: HAMSTER, LIVER, S-9, AROCLOR 1254 (30%), Method: PREINCUBATION
[11] = Test System: AMES SALMONELLA TYPHIMURIUM, Strain/Indicator: TA100, Metabolic Activation: NONE, Method: PREINCUBATION
[12] = Test System: AMES SALMONELLA TYPHIMURIUM, Strain/Indicator: TA100, Metabolic Activation: RAT, LIVER, S-9, AROCLOR 1254 (10%), Method: PREINCUBATION
[13] = Test System: AMES SALMONELLA TYPHIMURIUM, Strain/Indicator: TA100, Metabolic Activation: RAT, LIVER, S-9, AROCLOR 1254 (30%), Method: PREINCUBATION
[14] = Test System: AMES SALMONELLA TYPHIMURIUM, Strain/Indicator: TA1535, Metabolic Activation: NONE, Method: PREINCUBATION
[15] = Test System: AMES SALMONELLA TYPHIMURIUM, Strain/Indicator: TA1535, Metabolic Activation: RAT, LIVER, S-9, AROCLOR 1254 (10%), Method: PREINCUBATION
[16] = Test System: AMES SALMONELLA TYPHIMURIUM, Strain/Indicator: TA1537, Metabolic Activation: NONE, Method: PREINCUBATION

Row | Structure (SMILES) | mutagenic call [1] | mutagenic call [2] | mutagenic call [3] | mutagenic call [4] | mutagenic call [5] | mutagenic call [6] | mutagenic call [7] | mutagenic call [8] | mutagenic call [9] | mutagenic call [10] | mutagenic call [11] | mutagenic call [12] | mutagenic call [13] | mutagenic call [14] | mutagenic call [15] | mutagenic call [16] | further results
1 | O=[N+]([O-])c1ccc2c3c4c(cccc4c4ccccc4c13)C1OC21 (stereo not given) | – | – | – | – | – | – | – | – | – | – | – | – | – | – | – | – | mutagenic call (Test System: AMES SALMONELLA TYPHIMURIUM, Strain/Indicator: TA98(1,8-DNP6), Metabolic Activation: NONE, Method: STANDARD PLATE): inactive; negative; mutagenic call (Test System: AMES SALMONELLA TYPHIMURIUM, Strain/Indicator: TA98(1,8-DNP6), Metabolic Activation: RAT, LIVER, S-9, AROCLOR 1254, Method: STANDARD PLATE): inactive; negative; mutagenic call (Test System: AMES SALMONELLA TYPHIMURIUM, Strain/Indicator: TA98(NR), Metabolic Activation: NONE, Method: STANDARD PLATE): inactive; negative; mutagenic call (Test System: AMES SALMONELLA TYPHIMURIUM, Strain/Indicator: TA98(NR), Metabolic Activation: RAT, LIVER, S-9, AROCLOR 1254, Method: STANDARD PLATE): inactive; negative; mutagenic call (Test System: AMES SALMONELLA TYPHIMURIUM, Strain/Indicator: TA98, Metabolic Activation: NONE, Method: STANDARD PLATE): active; positive; mutagenic call (Test System: AMES SALMONELLA TYPHIMURIUM, Strain/Indicator: TA98, Metabolic Activation: RAT, LIVER, S-9, AROCLOR 1254, Method: STANDARD PLATE): active; positive
2 | CC=C(C)C#N | inactive; negative | inactive; negative | inactive; negative | inactive; negative | inactive; negative | inactive; negative | inactive; negative | inactive; negative | inactive; negative | inactive; negative | inactive; negative | inactive; negative | inactive; negative | inactive; negative | inactive; negative | inactive; negative | mutagenic call (Test System: AMES SALMONELLA TYPHIMURIUM, Strain/Indicator: TA97, Metabolic Activation: HAMSTER, LIVER, S-9, AROCLOR 1254 (10 OR 30%), Method: PREINCUBATION): inactive; negative; mutagenic call (Test System: AMES SALMONELLA TYPHIMURIUM, Strain/Indicator: TA1535, Metabolic Activation: HAMSTER, LIVER, S-9, AROCLOR 1254 (10 OR 30%), Method: PREINCUBATION): inactive; negative; mutagenic call (Test System: AMES SALMONELLA TYPHIMURIUM, Strain/Indicator: TA1537, Metabolic Activation: HAMSTER, LIVER, S-9, AROCLOR 1254 (30%), Method: PREINCUBATION): inactive; negative; mutagenic call (Test System: AMES SALMONELLA TYPHIMURIUM, Strain/Indicator: TA1537, Metabolic Activation: RAT, LIVER, S-9, AROCLOR 1254 (30%), Method: PREINCUBATION): inactive; negative
3 | c1ccsc1 | inactive; negative | inactive; negative | inactive; negative | inactive; negative | inactive; negative | inactive; negative | inactive; negative | inactive; negative | inactive; negative | inactive; negative | inactive; negative | inactive; negative | inactive; negative | inactive; negative | inactive; negative | inactive; negative | mutagenic call (Test System: AMES SALMONELLA TYPHIMURIUM, Strain/Indicator: TA97, Metabolic Activation: HAMSTER, LIVER, AROCLOR 1254 (10%), Method: PREINCUBATION): inactive; negative; mutagenic call (Test System: AMES SALMONELLA TYPHIMURIUM, Strain/Indicator: TA97, Metabolic Activation: RAT, LIVER, S-9, AROCLOR 1254 (30%), Method: PREINCUBATION): inactive; negative; mutagenic call (Test System: AMES SALMONELLA TYPHIMURIUM, Strain/Indicator: TA98, Metabolic Activation: RAT, LIVER, S-9, AROCLOR 1254, Method: PREINCUBATION): inactive; negative; mutagenic call (Test System: AMES SALMONELLA TYPHIMURIUM, Strain/Indicator: TA100, Metabolic Activation: RAT, LIVER, S-9, AROCLOR 1254, Method: PREINCUBATION): inactive; negative; mutagenic call (Test System: AMES SALMONELLA TYPHIMURIUM, Strain/Indicator: TA102, Metabolic Activation: NONE, Method: PREINCUBATION): inactive; negative; mutagenic call (Test System: AMES SALMONELLA TYPHIMURIUM, Strain/Indicator: TA102, Metabolic Activation: RAT, LIVER, S-9, AROCLOR 1254, Method: PREINCUBATION): inactive; negative; mutagenic call (Test System: AMES SALMONELLA TYPHIMURIUM, Strain/Indicator: TA1535, Metabolic Activation: HAMSTER, LIVER, S-9, AROCLOR 1254 (10%), Method: PREINCUBATION): inactive; negative; mutagenic call (Test System: AMES SALMONELLA TYPHIMURIUM, Strain/Indicator: TA1535, Metabolic Activation: HAMSTER, LIVER, S-9, AROCLOR 1254 (30%), Method: PREINCUBATION): inactive; negative; mutagenic call (Test System: AMES SALMONELLA TYPHIMURIUM, Strain/Indicator: TA1535, Metabolic Activation: RAT, LIVER, S-9, AROCLOR 1254 (30%), Method: PREINCUBATION): inactive; negative; mutagenic call (Test System: AMES SALMONELLA TYPHIMURIUM, Strain/Indicator: TA1537, Metabolic Activation: HAMSTER, LIVER, S-9, AROCLOR 1254 (10%), Method: PREINCUBATION): inactive; negative; mutagenic call (Test System: AMES SALMONELLA TYPHIMURIUM, Strain/Indicator: TA1537, Metabolic Activation: RAT, LIVER, S-9, AROCLOR 1254 (10%), Method: PREINCUBATION): inactive; negative; mutagenic call (Test System: Mouse lymphoma, Strain/Indicator: L5178Y (tk+/tk-), Metabolic Activation: None, Method: Suspension/plate): active; positive; mutagenic call (Test System: Mouse lymphoma, Strain/Indicator: L5178Y (tk+/tk-), Metabolic Activation: Rat, Liver, S-9, Aroclor 1254, Method: Suspension/plate): active; inconclusive (previous evaluation positive)
